From US20150064230A1, “SUSTAINED RELEASE DELIVERY OF ONE OR MORE AGENTS” (Mati Therapeutics Inc., priority 2009, published 2015)

Columns and labels:
[1] = Elution of latanoprost from silicone drug cores with excipients in PBS (FIGS. 9-12); assay type: physicochemical; conditions: 37° C., 100 cpm, 10% glycerol, 5% PEG400, 7.3 wt % DMPC or EPG in Formulations 1 and 2
Procedure: The silicone formulation (MED6385) is a two part system. Part A contains the silicone and crosslinker while Part B contains the tin catalyst to promote crosslinking. The two parts are combined in a final ratio of 200:1 (Part A: Part B). The required amounts of Latanoprost, the selected excipient (DMPC or EPG), the crosslinker, MED6385 Part A and B are weighed onto a glass slide and mixed for approximately 2 minutes using a plastic mini spatula. Quantities used in the preparation of specific examples are shown below.
After the silicone/latanoprost mixing is complete, the mixture is loaded in the barrel of the syringe extrusion system. The plunger is inserted and excess air is removed. The syringe is then loaded into the extrusion apparatus.
After setup, the extrusion system activated and a silicone latanoprost mixture is extruded down the length of the polyimide tubing. Once the mixture reaches the bottom of the tubing, the tubing is cut using a razor blade and clamped on both ends.
The clamped section of tubing is placed in a humidity chamber to be cured.
Samples, including those shown in FIGS. 9-12, were analyzed for elution by immersion in a PBS (phosphate buffered saline) elution medium. Temperature was maintained at 37° C. with 100 cpm shaking. The elution medium was changed daily (except weekends) for the first two weeks and weekly thereafter. Elution media samples were analyzed by reversed-phase chromatography. Samples were prepared for HPLC analysis by adding 200 μL of internal standard solution (2.4 μg/mL of butylated hydroxyanisole in isopropanol) and vortexing to mix. The amount of latanoprost eluted was determined using a reversed phase HPLC UV detection using a Waters SunFire C18, 3.5 μm, 3.0×100 mm column and detection conditions of the following: 1.0 mL/min flow rate, 200 μL injection volume, 210 nm detection wavelength, using gradient of solvents over a run time of 6 minutes (time zero=63% mobile phase A, 37% mobile phase B, time 4.9 minutes=35% A, 65% B, time 5 minutes=63% A, 37% B) comprising 0.1% Phosphoric Acid in Water (mobile Phase A) and ACN (mobile phase B), 50° C. column temperature set point.

[2] = after topical administration; studies in man; cited from earlier work
[3] = cited from earlier work
subjects = conditions: clinical trials, cited from earlier work

CCCCCCCCCCCCCC(=O)OC[C@H](COP(=O)([O-])OCC[N+](C)(C)C)OC(=O)CCCCCCCCCCCCC [DMPC, dimyristoyl phosphatidylcholine]
release (elution) rate of latanoprost from silicone matrix with excipient relative to no excipient [1]: increased elution rate

CCCCCCCC/C=C\CCCCCCCC(=O)O[C@H](COC(=O)CCCCCCCCCCCCCCC)COP(=O)(O)OCC(O)CO (stereo partly drawn) [POPG, palmitoyl oleoyl phosphatidylglycerol]
release (elution) rate of latanoprost from silicone matrix with excipient relative to no excipient [1]: increased elution rate

CCCCCCCCCCCCCCCC(=O)OC[C@H](COP(=O)([O-])OCC[N+](C)(C)C)OC(=O)CCCCCCCCCCCCCCC [DPPC, dipalmitoyl phosphatidylcholine]
release (elution) rate of latanoprost from silicone matrix with excipient relative to no excipient [1]: decreased elution rate

CCCCCCCCCCCCCCCCCC(=O)OC[C@H](COP(=O)([O-])OCC[N+](C)(C)C)OC(=O)CCCCCCCCCCCCCCCCC [DSPC, distearoyl phosphatidylcholine]
release (elution) rate of latanoprost from silicone matrix with excipient relative to no excipient [1]: decreased elution rate

CC(C)OC(=O)CCC/C=C\C[C@@H]1[C@@H](CC[C@@H](O)CCc2ccccc2)[C@H](O)C[C@@H]1O [latanoprost, isopropyl-(Z)-7[(1R,2R,3R,5S)3,5-dihydroxy-2-[(3R)-3-hydroxy-5-phenylpentyl]cyclopentyl]-5-heptenoate]
time to peak concentration in the aqueous humor [2]: about two
solubility in acetone, ethanol, ethyl acetate, isopropanol, methanol and octanol [3]: freely soluble
solubility in acetonitrile [3]: very soluble
solubility in water [3]: practically insoluble in water
aqueous solubility ([3]; in water at 25 degrees C.): 50 micrograms/mL
aqueous solubility, by weight ([3]; in water at 25 degrees C.): about 0.005 % by weight
conjunctivitis, diplopia, discharge from the eye, subjects (subjects; Xalatan product information): Less than 1%
retinal artery embolus, retinal detachment, vitreous hemorrhage from diabetic retinopathy (subjects; Xalatan product information): rarely reported
subjects requiring discontinuation of therapy because of intolerance to conjunctival hyperemia (subjects; Xalatan product information): Less than 1%
systemic adverse events: upper respiratory tract infection/cold/flu, rate (subjects): approximately 4%

CCCCCCCCCCCCCC(=O)OCC(COP(=O)(O)OCC(O)CO)OC(=O)CCCCCCCCCCCCC (stereo not drawn) [DMPG, dimyristoyl phosphatidylglycerol]
release (elution) rate of latanoprost from silicone matrix with excipient relative to no excipient [1]: increased elution rate

CCCCCCCCCCCCCCCCCC(=O)O[C@H](COC(=O)CCCCCCCCCCCCCCC)COP(=O)([O-])OCC[N+](C)(C)C [PSPC, palmitoyl stearoyl phosphatidylcholine]
release (elution) rate of latanoprost from silicone matrix with excipient relative to no excipient [1]: decreased elution rate

CCCCCCCCCCCCCCCC(=O)OCC(COP(=O)(O)OCCN)OC(=O)CCCCCCCCCCCCCCC (stereo not drawn) [DPPE, dipalmitoyl phosphatidylethanolamine]
release (elution) rate of latanoprost from silicone matrix with excipient relative to no excipient [1]: decreased elution rate

OCC(O)CO [glycerol]
release (elution) rate of latanoprost from silicone matrix with excipient relative to no excipient [1]: rate is increased relative to control
